The record followed here is US20130096119A1, “Isoquinolin-3-Ylurea Derivatives” (priority 2010, published 2013).

Converted amounts (≈) assume the structure as drawn.

The test system of the experiment is S. pneumoniae ATCC 49619. The experiment in a line: Minimal inhibitory concentration (MIC) by microdilution method (CLSI M7-A7). In kind it is cell-based, Streptococcus pneumoniae. To be noted: for MIC: Streptococcus pneumoniae, ATCC49619, cation-adjusted Mueller-Hinton Broth supplemented with 3% (v/v) lysed horse blood; for MIC for S. pneumoniae ATCC 49619: cation-adjusted Mueller-Hinton Broth supplemented with 3% (v/v) lysed horse blood. Here is the method: Minimal inhibitory concentrations (MICs; mg/l) were determined in cation-adjusted Mueller-Hinton Broth (supplemented with 3% (v/v) lysed horse blood for testing Streptococcus pneumoniae) by a microdilution method following the description given in “Methods for Dilution Antimicrobial Susceptibility Tests for Bacteria that Grow Aerobically”, Approved standard, 7th ed., Clinical and Laboratory Standards Institute (CLSI) Document M7-A7, Wayne, Pa., USA, 2006.

The MIC is the lowest concentration that inhibits growth of the organism. Read a low MIC as greater potency. `CCNC(=O)Nc1cc2cccc(Nc3ccc(C(N)=O)cc3)c2cn1.Cl` [Example 252, 4-[3-(3-ethyl-ureido)-isoquinolin-8-ylamino]-benzamide hydrochloride] yielded an MIC of 2 µg/mL.

In turn, `CCNC(=O)Nc1cc2cc(N)cc(C)c2cn1` [Example 54, 1-(6-amino-8-methyl-isoquinolin-3-yl)-3-ethyl-urea] came in with an MIC of 16 µg/mL (≈ 65.5 µM).

For `CCNC(=O)Nc1cc2cc(NC(=O)c3ccc(C(=O)OC)cc3)cc(C)c2cn1` [Example 193, N-[3-(3-ethyl-ureido)-8-methyl-isoquinolin-6-yl]terephthalamic acid methyl ester], 1 µg/mL (≈ 2.46 µM) was the least that counted as inhibitory (MIC).

On to “1-(8-chloro-5-pyrimidin-4-yl-isoquinolin-3-yl)-3-ethyl-urea [Example 289]”, for which the “MIC for S. pneumoniae ATCC 49619” value worked out at 2 µg/mL.

As to `CCNC(=O)Nc1cc2cc(-c3ccccc3O)cc(C)c2cn1` [Example 109, 1-ethyl-3-[6-(2-hydroxy-phenyl)-8-methyl-isoquinolin-3-yl]-urea], it took 2 µg/mL (≈ 6.22 µM) to inhibit growth (MIC).

For `CCNC(=O)Nc1cc2cc(NC(=O)c3ccccc3)ccc2cn1` [Example 52, N-[3-(3-ethyl-ureido)-isoquinolin-6-yl]-benzamide], the MIC was found to be 2 µg/mL (≈ 5.98 µM).

The molecule `CCNC(=O)Nc1cc2c(CCC(N)=O)ccc(C)c2cn1` [Example 59, 3-[3-(3-ethyl-ureido)-8-methyl-isoquinolin-5-yl]-propionamide] displayed an MIC of 4 µg/mL (≈ 13.3 µM).

Molecule `CCNC(=O)Nc1cc2c(CNC)ccc(C)c2cn1` [Example 269, 1-ethyl-3-(8-methyl-5-methylaminomethyl-isoquinolin-3-yl)-urea] returned an MIC of 8 µg/mL (≈ 29.4 µM).

`CCNC(=O)Nc1cc2cccc(Nc3cccc(C(=O)OC)n3)c2cn1.Cl` [Example 166, 6-[3-(3-ethyl-ureido)-isoquinolin-8-ylamino]-pyridine-2-carboxylic acid methyl ester hydrochloride] gave an MIC of 8 µg/mL.

As for `CCNC(=O)Nc1cc2cccc(Nc3cccc(C(N)=O)c3)c2cn1.Cl` [Example 254, 3-[3-(3-ethyl-ureido)-isoquinolin-8-ylamino]-benzamide hydrochloride], inhibition of growth (MIC) required 1 µg/mL.

Regarding `CCNC(=O)Nc1cc2cccc(NC(=O)c3ccccc3)c2cn1` [Example 70, N-[3-(3-ethyl-ureido)-isoquinolin-8-yl]-benzamide], 16 µg/mL (≈ 47.8 µM) was the least that counted as inhibitory (MIC).

`CCNC(=O)Nc1cc2c(-c3ccnc(N)c3)ccc(C)c2cn1` [Example 45, 1-[5-(2-amino-pyridin-4-yl)-8-methyl-isoquinolin-3-yl]-3-ethyl-urea] came in with an MIC of 2 µg/mL (≈ 6.22 µM).

With `CCNC(=O)Nc1cc2cc(-c3ccc(CNC(C)=O)cc3)cc(C)c2cn1` [Example 81, N-{4-[3-(3-ethyl-ureido)-8-methyl-isoquinolin-6-yl]-benzyl}-acetamide], the MIC was 0.5 µg/mL (≈ 1.33 µM).

`CCNC(=O)Nc1cc2cccc(Nc3cccc(S(N)(=O)=O)c3)c2cn1` [Example 171, 3-[3-(3-ethyl-ureido)-isoquinolin-8-ylamino]-benzenesulfonamide] displayed an MIC of 2 µg/mL (≈ 5.19 µM).

Molecule `CCNC(=O)Nc1cc2c(N3CCOCC3)ccc(Nc3cccnc3)c2cn1` [Example 274, 1-ethyl-3-[5-morpholin-4-yl-8-(pyridin-3-ylamino)-isoquinolin-3-yl]-urea] came in with an MIC of 2 µg/mL (≈ 5.1 µM).

In turn, `CCNC(=O)Nc1cc2cccc(COc3ccc(C)nc3)c2cn1.Cl` [Example 256, 1-ethyl-3-[8-(6-methyl-pyridin-3-yloxymethyl)-isoquinolin-3-yl]-urea hydrochloride] gave an MIC of 8 µg/mL.

Regarding `CCNC(=O)Nc1cc2cccc(Nc3ccc(C)nc3)c2cn1.Cl` [Example 164, 1-ethyl-3-[8-(6-methyl-pyridin-3-ylamino)-isoquinolin-3-yl]-urea hydrochloride], inhibition of growth (MIC) required 2 µg/mL.

The molecule `CCNC(=O)Nc1cc2c(-c3ccnc(OC)c3)ccc(Nc3cccnc3)c2cn1` [Example 225, 1-ethyl-3-[5-(2-methoxy-pyridin-4-yl)-8-(pyridin-3-ylamino)-isoquinolin-3-yl]urea] gave an MIC of 0.125 µg/mL (≈ 0.302 µM).

For `CCNC(=O)Nc1cc2cccc(Nc3ccc(C(=O)O)cc3)c2cn1` [Example 202, 4-[3-(3-ethyl-ureido)-isoquinolin-8-ylamino]-benzoic acid], the MIC turned out to be 1 µg/mL (≈ 2.85 µM).

`CCNC(=O)Nc1cc2cccc(Nc3ccc(OC)c(C(=O)N(C)C)c3)c2cn1` [Example 244, 5-[3-(3-ethyl-ureido)-isoquinolin-8-ylamino]-2-methoxy-N,N-dimethyl-benzamide] yielded an MIC of 2 µg/mL (≈ 4.91 µM).

`CCNC(=O)Nc1cc2c(F)ccc(C)c2cn1` [Example 60, 1-ethyl-3-(5-fluoro-8-methyl-isoquinolin-3-yl)-urea] displayed an MIC of 4 µg/mL (≈ 16.2 µM).

Take `CCNC(=O)Nc1cc2cc(-c3cn[nH]c3)cc(C)c2cn1` [Example 28, 1-ethyl-3-[8-methyl-6-(1H-pyrazol-4-yl)-isoquinolin-3-yl]-urea]: the MIC turned out to be 2 µg/mL (≈ 6.77 µM).

With `CCNC(=O)Nc1cc2cc(NCc3ccc4c(c3)OCCN4C)cc(C)c2cn1.Cl` [Example 130, 1-ethyl-3-{8-methyl-6-[(4-methyl-3,4-dihydro-2H-benzo[1,4]oxazin-7-ylmethyl)-amino]isoquinolin-3-yl}-urea hydrochloride], 8 µg/mL was the least that counted as inhibitory (MIC).

Molecule `C=Cc1ccc(-c2ccncc2)c2cc(NC(=O)NCC)ncc12` [Example 140, 1-ethyl-3-[5-(pyridin-4-yl)-8-vinylisoquinolin-3-yl]-urea] had an MIC of 2 µg/mL (≈ 6.28 µM).

Regarding `CCNC(=O)Nc1cc2cc(C(NC(C)=O)c3ccccc3)cc(C)c2cn1` (stereo not shown) [Example 17, N-{1-[3-(3-ethyl-ureido)-8-methyl-isoquinolin-6-yl]-benzyl}-acetamide], the “MIC for S. pneumoniae ATCC 49619” value came out at 1 µg/mL.

`CCNC(=O)Nc1cc2c(-c3cccnc3)ccc(C)c2cn1` [Example 50, 1-ethyl-3-(8-methyl-5-pyridin-3-yl-isoquinolin-3-yl)-urea] showed an MIC of 8 µg/mL (≈ 26.1 µM).

`CCNC(=O)Nc1cc2cccc(Nc3ccc(C)c(C(=O)O)c3)c2cn1` [Example 265, 5-[3-(3-ethyl-ureido)-isoquinolin-8-ylamino]-2-methyl-benzoic acid] showed an MIC of 1 µg/mL (≈ 2.74 µM).

`CCNC(=O)Nc1cc2c(-c3cn[nH]c3)ccc(C)c2cn1.Cl` [Example 281, 1-ethyl-3-[8-methyl-5-(1H-pyrazol-4-yl)-isoquinolin-3-yl]urea hydrochloride]: the lowest concentration to inhibit growth (MIC) was 0.5 µg/mL.

Molecule `CCNC(=O)Nc1cc2cc(-c3cscc3C)cc(C)c2cn1` [Example 80, 1-ethyl-3-[8-methyl-6-(4-methyl-thiophen-3-yl)-isoquinolin-3-yl]-urea] displayed an MIC of 16 µg/mL (≈ 49.2 µM).

In turn, `CCNC(=O)Nc1cc2c(F)ccc(NCc3cccnc3)c2cn1` [Example 55, 1-ethyl-3-{5-fluoro-8-[(pyridin-3-ylmethyl)-amino]-isoquinolin-3-yl}-urea] had an MIC of 8 µg/mL (≈ 23.6 µM).

On to `CCNC(=O)Nc1cc2cc(-c3cncc(C(=O)OC)c3)cc(C)c2cn1` [Example 87, 5-[3-(3-ethyl-ureido)-8-methyl-isoquinolin-6-yl]-nicotinic acid methyl ester], for which the MIC was 8 µg/mL (≈ 22 µM).

As for `CCNC(=O)Nc1cc2cc(-c3cncc(C)c3)cc(C)c2cn1` [Example 39, 1-ethyl-3-[8-methyl-6-(5-methyl-pyridin-3-yl)-isoquinolin-3-yl]-urea], it took 1 µg/mL (≈ 3.12 µM) to inhibit growth (MIC).

As to `CCNC(=O)Nc1cc2cccc(Nc3ccc(C#N)cc3)c2cn1` [Example 174, 1-[8-(4-cyano-phenylamino)-isoquinolin-3-yl]-3-ethyl-urea], inhibition of growth (MIC) required 2 µg/mL (≈ 6.04 µM).

As to `CCNC(=O)Nc1cc2cccc(Nc3cc(C)ccn3)c2cn1.Cl` [Example 162, 1-ethyl-3-[8-(4-methyl-pyridin-2-ylamino)-isoquinolin-3-yl]-urea hydrochloride], the MIC worked out at 2 µg/mL.

`CCNC(=O)Nc1cc2c(N3CCN(C)CC3)ccc(Nc3cccnc3)c2cn1` [Example 277, 1-ethyl-3-[5-(4-methyl-piperazin-1-yl)-8-(pyridin-3-ylamino)-isoquinolin-3-yl]-urea] had an MIC of 2 µg/mL (≈ 4.93 µM).

In turn, `CCNC(=O)Nc1cc2cccc(CNc3cc(C)on3)c2cn1.Cl` [Example 301, 1-ethyl-3-{8-[(5-methyl-isoxazol-3-ylamino)-methyl]-isoquinolin-3-yl}-urea hydrochloride] came in with an MIC of 4 µg/mL.

`CCNC(=O)Nc1cc2cc(-c3ccc(S(C)(=O)=O)cc3)cc(C)c2cn1` [Example 94, 1-ethyl-3-[6-(4-methanesulfonyl-phenyl)-8-methyl-isoquinolin-3-yl]-urea]: 0.25 µg/mL (≈ 0.652 µM) was the least that counted as inhibitory (MIC).

Consider `CCNC(=O)Nc1cc2c(-c3ccncc3)ccc(C)c2cn1` [Example 61, 1-ethyl-3-(8-methyl-5-pyridin-4-yl-isoquinolin-3-yl)-urea], for which inhibition of growth (MIC) required 1 µg/mL (≈ 3.26 µM).

Consider `CCNC(=O)Nc1cc2cc(NCC3CC3)cc(C)c2cn1.Cl` [Example 133, 1-{6-[(cyclopropylmethyl)-amino]-8-methyl-isoquinolin-3-yl}-3-ethyl-urea hydrochloride], for which the MIC stood at 16 µg/mL.

With `CCNC(=O)Nc1cc2cc(-c3ccc(OC)nc3)cc(C)c2cn1` [Example 89, 1-ethyl-3-[6-(6-methoxy-pyridin-3-yl)-8-methyl-isoquinolin-3-yl]-urea], the MIC came to 0.5 µg/mL (≈ 1.49 µM).

For `CCNC(=O)Nc1cc2cccc(CNc3ccnn3C)c2cn1.Cl` [Example 303, 1-ethyl-3-{8-[(2-methyl-2H-pyrazol-3-ylamino)-methyl]-isoquinolin-3-yl}-urea hydrochloride], the MIC stood at 4 µg/mL.

`CCNC(=O)Nc1cc2cc(-c3ccncc3Cl)cc(C)c2cn1` [Example 98, 1-[6-(3-chloro-pyridin-4-yl)-8-methyl-isoquinolin-3-yl]-3-ethyl-urea] gave an MIC of 4 µg/mL (≈ 11.7 µM).

Regarding `CCNC(=O)Nc1cc2cccc(Oc3cccnc3)c2cn1` [Example 147, 1-ethyl-3-[8-(pyridin-3-yloxy)-isoquinolin-3-yl]-urea], the MIC is 4 µg/mL (≈ 13 µM).
